Measured values as given in patent US20220264878A1, “HERBICIDAL COMPOSITION CONTAINING R-TYPE PYRIDYLOXY CARBOXYLIC ACID DERIVATIVE AND USE THEREOF” (Qingdao Kingagroot Chemical Compound Co., Ltd., priority 2019, published 2022).

How the values were obtained:
Assay type in all cases: in vivo
[1] = system: Echinochloa crusgalli var. zelayensis; test: Soil sealing treatment, pot culture, fresh weight inhibition (Tables 49, 50)
Experimental: (§1) A method for investigating absolute number was employed, wherein whole seedlings of survival weeds were cut off with a blade along the soil surface, and the fresh weight of the weeds was weighed with an analytical balance. For dead weeds, the fresh weight thereof was zero.
(§2) Theoretical fresh weight inhibition rate of a combination of two active ingredients in each group was calculated by the Gowing method (E0=X+Y−X*Y/100), and then compared with an actually measured inhibition rate (E), thereby effect of the combination (hereafter referred to as combined effect) on weeds was evaluated: the value of E-E0, which was greater than 10%, corresponded to a synergistic effect, the value of E-E0, which was less than −10%, corresponded to an antagonistic effect, and the value of E-E0, which was from −10% to 10%, corresponded to an additional effect. […] Wherein, in the formula, X represented the fresh weight inhibition rate of the active ingredient A in a dosage of P, and Y represented the fresh weight inhibition rate of the active ingredient B in a dosage of Q.
(§3) Echinochloa crusgalli var zelayensis were collected in Huai'an of Jiangsu Province; Echinochloa caudate were collected in Pingluo of Ningxia Province; Echinochloa oryzoides were collected in Qiqiha'er of Heilongjiang Province.
(§4) The culture was carried out in a controllable sunlight greenhouse at 20 to 30° C., in natural light, and relative humidity of 57% to 72%. […] The test soil was placed quantitatively to ¾ of the pots and then watered from the bottom of the pots to completely wet the soil to saturation. The pretreated test weed seeds were uniformly sowed on the surface, then covered with 0.5-2 cm soil according to the seed size, and ready-for use 24 hours after sowing.
(§5) The technical materials were all dissolved in acetone, and diluted with an aqueous solution containing 0.1% emulsifier T-80. The dilution is performed as required.
(§6) A ratio of A to the active ingredient B and amounts thereof in each group depends on the characteristics and toxicity of the two agents, as well as the main application purpose of a corresponding formulation. Based on the pre-tests in this study, the dosage of A and the active ingredient B applied alone and in combination were shown in the tables. Water containing the solvent and emulsifier same with the above groups but free of the agents was used as a blank control.
(§7) 3 pots with 30 weed seeds per pot were treated in one treatment with 4 replications per treatment.
(§8) The pots which were sowed and mulched were evenly placed on a platform with an area of 0.5 m^2, and a solution of agents was sprayed on soil surface thereof by the 3WP-2000-type walking spray tower at a dosage of […] and at a spray pressure of 0.3 MPa. After all the solution was sprayed, the valve was closed. After 30 seconds, the door of the spray tower was opened, and the nutritional bowl was taken out. Then the valve was opened, and the spray tube was cleaned by spraying 50 ml of water.
(§9) This section was same as the section 4) in the post-emergence treatment by performing foliage spray, and was not repeated herein.

Echinochloa oryzoides = test: Soil sealing treatment, pot culture, fresh weight inhibition (Tables 149, 150)
Experimental: as §1, §2, §3, §4, §5, §6, §7, §8, §9

Echinochloa caudate = test: Soil sealing treatment, pot culture, fresh weight inhibition (Tables 99, 100)
Experimental: as §1, §2, §3, §4, §5, §6, §7, §8, §9

Ammannia arenaria = test: Post-emergence foliage spray, pot culture, fresh weight inhibition (Tables 1-48, 51-98, 101-148; 24 days); conditions: Table 103
How it was run: (§10)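 Greenhouse pot-grown weeds (15 per pot, 3 pots, 4 replicates) at the 5–6-leaf (grasses) or 6–7-leaf (broadleaf) stage were sprayed once on foliage at 450 kg/ha spray volume, 0.3 MPa. Acetone solutions were diluted in 0.1% Tween-80. Aboveground fresh weight versus blank control was recorded after 24 days.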

Ludwigia prostrate = test: as above
How it was run: as §10

Eclipta prostrate = test: as above; conditions: 24 days
How it was run: as §10

C#CCOc1cc(-n2nc(C(C)(C)C)oc2=O)c(Cl)cc1Cl [oxadiargyl]
Control effect (%) of B applied alone in corresponding dose ([1]; oxadiargyl 7.5 g a.i./ha): 1.6%
Control effect (%) of B applied alone in corresponding dose ([1]; oxadiargyl 15 g a.i./ha): 10.4%
Control effect (%) of B applied alone in corresponding dose ([1]; oxadiargyl 30 g a.i./ha): 38.8%
Control effect (%) of B applied alone in corresponding dose ([1]; oxadiargyl 60 g a.i./ha): 63.5%
Control effect (%) of B applied alone in corresponding dose (Echinochloa oryzoides; B 7.5 g a.i./ha): 2.6%
Control effect (%) of B applied alone in corresponding dose (Echinochloa oryzoides; B 15 g a.i./ha): 12.7%
Control effect (%) of B applied alone in corresponding dose (Echinochloa oryzoides; B 30 g a.i./ha): 41.6%
Control effect (%) of B applied alone in corresponding dose (Echinochloa oryzoides; B 60 g a.i./ha): 63.3%
Control effect (%) of B applied alone in corresponding dose (Echinochloa caudate; Table 100, 7.5 g a.i./ha): 1.7%
Control effect (%) of B applied alone in corresponding dose (Echinochloa caudate; Table 100, 15 g a.i./ha): 10.8%
Control effect (%) of B applied alone in corresponding dose (Echinochloa caudate; Table 100, 30 g a.i./ha): 37.2%
Control effect (%) of B applied alone in corresponding dose (Echinochloa caudate; Table 100, 60 g a.i./ha): 62.5%

CC(C)Oc1cc(-n2nc(C(C)(C)C)oc2=O)c(Cl)cc1Cl [oxadiazon]
Control effect (%) of B applied alone in corresponding dose ([1]; oxadiazon 37.5 g a.i./ha): 4.2%
Control effect (%) of B applied alone in corresponding dose ([1]; oxadiazon 75 g a.i./ha): 25.4%
Control effect (%) of B applied alone in corresponding dose ([1]; oxadiazon 150 g a.i./ha): 41.5%
Control effect (%) of B applied alone in corresponding dose ([1]; oxadiazon 300 g a.i./ha): 64.2%
Control effect (%) of B applied alone in corresponding dose (Echinochloa oryzoides; B 37.5 g a.i./ha): 5.1%
Control effect (%) of B applied alone in corresponding dose (Echinochloa oryzoides; B 75 g a.i./ha): 10.3%
Control effect (%) of B applied alone in corresponding dose (Echinochloa oryzoides; B 150 g a.i./ha): 39.7%
Control effect (%) of B applied alone in corresponding dose (Echinochloa oryzoides; B 300 g a.i./ha): 50.8%
Control effect (%) of B applied alone in corresponding dose (Echinochloa caudate; Table 99, 37.5 g a.i./ha): 6.0%
Control effect (%) of B applied alone in corresponding dose (Echinochloa caudate; Table 99, 75 g a.i./ha): 22.1%
Control effect (%) of B applied alone in corresponding dose (Echinochloa caudate; Table 99, 150 g a.i./ha): 39.5%
Control effect (%) of B applied alone in corresponding dose (Echinochloa caudate; Table 99, 300 g a.i./ha): 63.0%

CCOC(=O)c1cnn(C)c1S(=O)(=O)NC(=O)Nc1nc(OC)cc(OC)n1 [pyrazosulfuron-ethyl]
Control effect (%) of B applied alone in corresponding dose (Ammannia arenaria; 1.875 g a.i./ha): 16.3%
Control effect (%) of B applied alone in corresponding dose (Ammannia arenaria; 3.75 g a.i./ha): 26.1%
Control effect (%) of B applied alone in corresponding dose (Ammannia arenaria; 7.5 g a.i./ha): 52.8%
Control effect (%) of B applied alone in corresponding dose (Ammannia arenaria; 15 g a.i./ha): 77.2%
Control effect (%) of B applied alone in corresponding dose (Ludwigia prostrate; pyrazosulfuron-ethyl 1.875 g a.i./ha): 7.6%
Control effect (%) of B applied alone in corresponding dose (Ludwigia prostrate; pyrazosulfuron-ethyl 3.75 g a.i./ha): 13.0%
Control effect (%) of B applied alone in corresponding dose (Ludwigia prostrate; pyrazosulfuron-ethyl 7.5 g a.i./ha): 52.2%
Control effect (%) of B applied alone in corresponding dose (Ludwigia prostrate; pyrazosulfuron-ethyl 15 g a.i./ha): 75.3%
Control effect (%) of B applied alone in corresponding dose (Eclipta prostrate; B 1.875 g a.i/ha): 9.5%
Control effect (%) of B applied alone in corresponding dose (Eclipta prostrate; B 3.75 g a.i/ha): 19.9%
Control effect (%) of B applied alone in corresponding dose (Eclipta prostrate; B 7.5 g a.i/ha): 51.0%
Control effect (%) of B applied alone in corresponding dose (Eclipta prostrate; B 15 g a.i/ha): 76.1%
